Laboratory results published in patent US6447786B1, “Blocking expression of virulence factors in S. aureus” (New York University, priority 1994, dated 2002).
No end group written: not given here.

Tests used:
Format in all cases: cell-based
[1] = tested on: agr transcription of S. aureus RN6390B
[2] = tested on: RNAIII transcription of S. aureus RN6607
[3] = tested on: RNAIII transcription of S. aureus RN8463
[4] = tested on: RNAIII transcription of various S. aureus strains

Substance | Effect of purified peptide on RNAIII transcription [1] | Effect of purified peptide on RNAIII transcription [2] | Effect of purified peptide on RNAIII transcription [3] | S. aureus strains tested in which the agr response is inhibited [4]
YSTCDFIM [activator peptide] | activator effect | inhibitor effect | inhibitor effect | –
GVNACSSLF [peptide from RN6607, peptide purified from supernatant of strain with cloned agrBD genes of RN6607] | inhibitor effect | activator effect | inhibitor effect | –
DICNAYF [S. lugdunensis pheromone] | – | – | – | 5 of 6
YINCDFLL [peptide from RN8463, peptide purified from supernatant of strain with cloned agrBD genes of RN8463] | inhibitor effect | inhibitor effect | activator effect | –
